Target: T1, MARK3 (Homo sapiens, UniProt P27448)
T1 construct: purchased Thermo Fisher Scientific (Life Technologies) SelectScreen
Test: SelectScreen Z'LYTE
Format: biochemical
How it was run: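 NU5455 was profiled across the SelectScreen Broad panel of kinase activity and binding assays. Z'LYTE reactions such as CSF1R ran at apparent Km ATP, while the Adapta CAMK1 assay used ATP listed as 10. Values are given as percent.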

T1 sequence (P27448 whole entry): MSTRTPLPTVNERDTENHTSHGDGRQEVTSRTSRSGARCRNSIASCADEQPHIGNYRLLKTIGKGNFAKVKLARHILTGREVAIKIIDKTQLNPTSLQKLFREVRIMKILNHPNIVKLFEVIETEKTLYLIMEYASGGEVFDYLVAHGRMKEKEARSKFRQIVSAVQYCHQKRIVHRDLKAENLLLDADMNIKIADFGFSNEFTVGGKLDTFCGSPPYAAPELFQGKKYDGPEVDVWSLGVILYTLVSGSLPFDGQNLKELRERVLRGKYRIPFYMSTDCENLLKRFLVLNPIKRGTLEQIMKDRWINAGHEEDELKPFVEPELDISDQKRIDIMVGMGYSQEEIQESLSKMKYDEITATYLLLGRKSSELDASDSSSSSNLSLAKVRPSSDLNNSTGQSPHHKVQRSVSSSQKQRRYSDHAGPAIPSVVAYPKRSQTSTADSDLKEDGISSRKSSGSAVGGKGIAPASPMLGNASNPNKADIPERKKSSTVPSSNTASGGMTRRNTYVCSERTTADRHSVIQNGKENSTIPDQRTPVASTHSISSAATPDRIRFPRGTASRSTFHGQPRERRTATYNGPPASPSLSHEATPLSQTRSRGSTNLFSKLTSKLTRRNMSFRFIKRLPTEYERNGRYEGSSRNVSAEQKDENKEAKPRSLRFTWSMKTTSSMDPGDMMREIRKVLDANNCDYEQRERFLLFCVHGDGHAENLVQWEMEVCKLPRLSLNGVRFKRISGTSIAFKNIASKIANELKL

`CN(C(=O)CN1CCOCC1)c1ccc2sc3c(-c4cccc5c(=O)cc(N6CC7CCC(C6)O7)oc45)cccc3c2c1` [NU5455] was tested, and the inhibition at 1 µM was 11.4%.

Reference: publication PMC6934184, “Selective DNA-PKcs inhibition extends the therapeutic index of localized radiotherapy and chemotherapy” (The Journal of Clinical Investigation, 2019)
